This is an account of results in PMC9735965, “Recovery of Gallium-68 and Zinc from HNO3-Based Solution by Liquid–Liquid Extraction with Arylamino Phosphonates” (Molecules, 2022).

The nature of the data set: Aqueous solubility of extractants by qNMR. Format: physicochemical. To be noted: water, thermodynamic from solid; experimentally determined; in D2O by qNMR. The method, then: A 1 mL volumetric flask was charged with 10–15 mg of the extractant and 1 mL of D2O. The resulting suspension was sonicated for 30 min and the content was centrifuged, filtered through a 0.45 µm syringe filter, and transferred into an NMR tube. A sealed capillary containing an external calibrant (acetanilide for ^1H qNMR and triphenylphosphine for ^31P qNMR) was inserted into the NMR tube and the solubility of extractants 1–9 was determined from their ^1H or ^31P NMR spectra using the formula: Cx = (Ix/Ical) × (Ncal/Nx) × Ccal, where I, N, and C are the integral area, number of nuclei, and the concentration of the extractant (x) and the calibrant (cal), respectively.
As a reminder, the solubility is how much of the substance goes into solution per volume. `CCCCCCCCOP(=O)(O)C(Nc1ccccc1)c1ccccc1` (stereo not drawn) [Extractant 1, reference compound] displayed a solubility at 30 min of 220 µM. The same measure for `COP(=O)(O)C(Nc1ccc(C(C)(C)C)cc1)c1ccc(C(C)(C)C)cc1` (stereo not drawn) [Extractant 2]: 100 µM; for `CCCCCCCCOP(=O)(O)C(Nc1ccc(OC)cc1)c1cccs1` (stereo not drawn) [Extractant 3]: 250 µM; for `CCCCCCCCOP(=O)(O)C(Nc1ccc(C(F)(F)F)cc1)c1ccc(C(C)(C)C)cc1` (stereo not drawn) [Extractant 4]: 80 µM.

`CCCCCCCCOP(=O)(O)C(Nc1ccc(OC)cc1)c1ccc(C(F)(F)F)cc1` (stereo not drawn) [Extractant 5]: the solubility at 30 min was determined as 40 µM. The same measure for `COP(=O)(O)C(Nc1ccc(C(F)(F)F)cc1)c1cc(C(F)(F)F)cc(C(F)(F)F)c1` (stereo not drawn) [Extractant 6]: 2600 µM. The same measure for `CCCCCCCCOP(=O)(O)C(Nc1cc(C(F)(F)F)cc(C(F)(F)F)c1)c1ccc(C(C)(C)C)cc1` (stereo not drawn) [Extractant 7]: 80 µM; for `COCCOCCOP(=O)(O)C(Nc1cc(C(F)(F)F)cc(C(F)(F)F)c1)c1ccc(C(F)(F)F)cc1` (stereo not drawn) [Extractant 8]: 1600 µM; for `COCCOCCOP(=O)(O)C(Nc1cc(C(F)(F)F)cc(C(F)(F)F)c1)c1cc(C(F)(F)F)cc(C(F)(F)F)c1` (stereo not drawn) [Extractant 9]: 1730 µM.
